The record followed here is patent US20120093836A1, “PHARMACEUTICAL COMPOSITIONS FOR TREATING METASTASIS” (UNIVERSIDAD DEL PAIS VASCO, priority 2009, published 2012).

Test [1] concerns adhesion of MB16 cells to the HSE (hepatic sinusoidal endothelium). As to the kind of experiment: Tumor adhesion assay for C. albicans-induced tumor adhesion (fluorescence, BCECF-AM labelled MB16 cells on HSE). The note with it: IL-1β receptor blocked, added 15 minutes before MNF. The class given is cell-based, mouse. As to the method:
The adhesion was measured using the method based on the fluorescence measurement. The MB16 cells were resuspended in a solution of 2′,7′-bis-(2-carboxyethyl)-5.6-carboxyfluorescein acetoxymethyl ester (BCECF-AM) in DMEM-HEPES (40 μg/ml) and were incubated for 20 minutes at 37° C. The cells were then washed and resuspended in DMEM-HEPES at a concentration of 2×10^5 cells/ml. The autofluorescence of the HSE culture was determined.
Subsequently, the HSE cells were incubated with different strains and extracts of C. albicans (5×10^5 cells/well), MNF (2 μg carbohydrate/ml), EC (2 μg carbohydrate/ml), PF (2 μg protein/ml) or commercial mannan from Saccharomyces cerevisiae (100 μg/ml) for 8 hours. The non-treated HSE cells received basal medium as control. […]
Once the time of adhesion ended, the co-cultures were excited with light of wavelength 488 nm and the fluorescence emitted at 530 nm by the BCEF incorporated to the tumor cells in the scanning fluorometer in plate was recorded. […] Subsequently, 1 ml of the same adhesion medium was added in each well and the fluorescence emitted was read. Thus a relative value (in arbitrary units of fluorescence intensity) could be determined with respect to the number of tumor cells added. […]

The test system of a further test is TNF-α. Nature of the test: Production of TNF-α by the HSE (ELISA of supernatants). Format: cell-based, mouse. The note with it: IL-1β receptor blocked. The protocol: The concentration of TNF-α and IL-18 in the supernatants was determined using a monoclonal antibody-based commercial ELISA kit (R&D Systems) following the manufacturer's instructions. The tumor adhesion assays of C. albicans-induced tumor adhesion and B16 melanoma tumor cell proliferation assays in response to C. albicans (both described above) were performed in collaboration with the company, Pharmakine S.L.
The stimulation of the endothelium causes a cascade of cytokine which ends with the expression of adhesion molecules such as the VCAM-1 (Mendoza (cited at supra) 1998, Vidal-Vanaclocha et al. 2000. PNAS, 97: 734-739) wherein the tumor cells are adhered. To know whether the process triggered by the MNF which as a consequence caused the increase of the adhesion of MB16 cells to the HSE was also mediated by cytokines, the concentration of TNF-α, the cytokine which is described as one of the first and most important cytokines acting in the proinflammatory cascade described in the HSE was measured.

With “IL-Ra: IL-1β receptor antagonist molecule (Amgen Biologicals)”, the “effect on the increase of the tumor adhesion to the HSE induced by the MNF (in words)” value in test [1] is on record as “completely inhibits”. Moreover, the “effect on the release of TNF-α by the endothelium stimulated by the mannoproteins of C. albicans (in words)” value in the test with TNF-α is reported as “partially reduces”.
